Measured values reported in ChEMBL document CHEMBL1127400 (J Med Chem, 1994).

Key:
[1] = biological target: T1, Sodium-dependent dopamine transporter (Rattus norvegicus, UniProt P23977); assay: Binding affinity was determined against cocaine binding site by measuring the ability of compound to displace bound [3H]dopamine from rat caudate-putamen tissue; type: tissue-based
[2] = biological target: T1, Sodium-dependent dopamine transporter; assay: Tested for its ability to inhibit high affinity uptake of [3H]dopamine into rat caudate-putamen tissue; type: tissue-based
[3] = biological target: T1, Sodium-dependent dopamine transporter; assay: Binding affinity was determined against cocaine receptor by measuring the ability of compound to displace bound [3H]-3 from rat caudate-putamen tissue; type: tissue-based
[4] = Tested for its ability to inhibit high affinity uptake of [3H]-dopamine into rat caudate-putamen tissue; type: functional, tissue-based

T1 sequence (P23977 whole entry): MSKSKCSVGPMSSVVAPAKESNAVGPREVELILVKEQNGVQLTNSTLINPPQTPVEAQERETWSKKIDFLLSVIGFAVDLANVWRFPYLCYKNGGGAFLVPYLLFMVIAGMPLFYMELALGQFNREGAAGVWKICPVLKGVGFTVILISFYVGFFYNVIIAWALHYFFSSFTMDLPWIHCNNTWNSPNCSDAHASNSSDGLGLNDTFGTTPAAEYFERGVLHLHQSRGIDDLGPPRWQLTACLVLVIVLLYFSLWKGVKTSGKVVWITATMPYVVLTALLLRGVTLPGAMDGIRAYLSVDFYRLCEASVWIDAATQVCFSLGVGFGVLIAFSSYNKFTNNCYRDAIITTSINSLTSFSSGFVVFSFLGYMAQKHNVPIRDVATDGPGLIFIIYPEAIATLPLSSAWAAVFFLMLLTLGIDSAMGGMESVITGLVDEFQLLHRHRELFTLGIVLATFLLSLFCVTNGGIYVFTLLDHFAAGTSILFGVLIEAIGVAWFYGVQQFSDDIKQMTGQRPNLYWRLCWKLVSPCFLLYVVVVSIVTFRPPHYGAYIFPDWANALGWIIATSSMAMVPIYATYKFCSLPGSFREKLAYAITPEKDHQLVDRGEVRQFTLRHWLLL

Row | SMILES | Ki [1] [nM] | IC50 [2] [nM] | Ki [3] [nM] | IC50 [4] [nM]
1 | CN1C2CC[C@@H]1C[C@H](c1ccccc1)C2CCCO (stereo partly drawn) | 11 | 64 | – | –
2 | COC(=O)[C@@H]1C2CC[C@H](C[C@@H]1c1ccccc1)N2C | 33 | 373 | 314 | –
3 | COC(=O)/C=C/C1C2CC[C@H](C[C@@H]1c1ccccc1)N2C (stereo partly drawn) | 22 | 123 | – | –
4 | COC(=O)CCC1C2CC[C@H](C[C@@H]1c1ccccc1)N2C (stereo partly drawn) | 23 | 166 | – | –
5 | CN1C2CC[C@@H]1C[C@H](c1ccccc1)C2CC/C=C/C(=O)O (stereo partly drawn) | 20 | – | – | 203
6 | CN1C2CC[C@@H]1C[C@H](c1ccccc1)C2/C=C/CO (stereo partly drawn) | 26 | – | – | 159
